Test results from patent US12357620B2 (New York Medical College, priority 2019, dated 2025).
“Also recorded” adds a separate entry of the source.

Assays:
[1] = tested on: circulating aged neutrophils (CANs); assay: Circulating aged neutrophils (CANs) by multicolor flow cytometry in SCD patients on rifaximin; type: in vivo, human
Text: (§1) (ClinicalTrials.gov Identifier: NCT03719729). There were eight males and five females. Ten patients had HbSS, two HbSß^0thal, and one HbSC. Their median age was 29 years (range 24-56). The median number of VOC in the previous 12 months was 4.5 (range 2-13) and number of days needing intravenous opioid analgesia (IOA) was 25.5 days (range 8-198). In 12 of the 13 patients, the VOC was in the form of musculo-skeletal pain typical in distribution for the VOC that normally affected individual patients and in one patient, the VOC was predominantly in the form of recurrent priapism. Five of the patients were already taking hydroxyurea and none L-glutamine or on a transfusion program. Six patients were taking oral opioid at home for chronic pain. The study ran between November 2018 and early August 2019, covering the winter months when most of the patients reported having most frequent VOC. […] CANs were measured by multicolor flow cytometry. Neutrophils were gated by Gr-1^hi CD115^lo SSC^hi and CANs by CD62L^lo CXCR4^hi within the neutrophil population.

serum CD62L = assay: Serum CD62L, marker of neutrophil activation, in SCD patients; type: in vivo, human; details: SCD subjects following rifaximin treatment
serum iFABP = assay: Serum intestinal Fatty Acid Binding Protein (iFABP), intestinal injury, in SCD patients; type: in vivo, human; details: 12 SCD patients following rifaximin; to levels comparable to controls without SCD
serum LPS = assay: Serum lipopolysaccharides (LPS), bacterial translocation, in SCD patients; type: in vivo, human; details: all treated patients vs pre-treatment; to levels comparable to controls without SCD
urinary 3-IS = assay: Urinary 3-IS, total intestinal microbial load, in SCD patients; type: in vivo, human; details: after being started on oral rifaximin
intestinal microbiome = assay: 16S rRNA analysis of stool specimens for changes in intestinal microbiome; type: in vivo, human; details: during vs pre-rifaximin treatment
Text: Relative abundances were transformed with the additive log ratio (alr), prior to calculating the difference, to reduce the spurious correlations associated with compositional data. Positive differences signify increased abundance post treatment. Histograms represent the frequency of differences between during and pre-rifaximin treatment alr values, where an increase of abundance during treatment is indicated by a shift of the distribution towards the right.

patients with SCD [2] = assay: Clinical trial NCT03719729: VOC episodes and days needing intravenous opioid analgesia; type: in vivo, human
Text: as §1
(§2) Twelve of the 13 patients accrued to the study were evaluable for response. […] The mean self-reported medication compliance of the intended doses was 86% (range 50-100). The median number of VOC during the study period decreased from the expected 2.25 (range 1-6.5) per 6 months to 1 per 6 months (range 0-4) (p=0.003) (FIG. 8). […] Their self-reported medication compliance was 100%. The median decrease in days needing IOA over the six-month study-period was 9 (range 1-55), and the median % reduction was 82 (range 20-100) (p=0.008) (FIG. 9). Total number of days needing IOA was reduced from the expected 254 in six months to 98 during the study period. […] Reported adverse events: 1 case of self-limiting probable viral gastroenteritis (culture negative, C. diff negative by PCR) and 2 cases of increased thirst. Slight nausea was common in the first week.

patients with SCD [3] = assay: Clinical trial: laboratory analyses, tolerability and adverse events; type: in vivo, human
Text: as §1, §2

patients with SCD [4] = assay: Quality of Life survey using the FANTLC questionnaire; type: in vivo, human
Text: Four aspects of QoL issues were examined: Physical well-being, Social well-being, Emotional well-being, and Functional well-being. The scores for response for each of the question were on a scale of 0-4 (0=not at all; 4=very much). As a group, the median score for response to the question “I have pain” decreased from 3.5 to 2 (p=0.08). When the two patients who reported only slight pain before the study (score of 0 or 1) were excluded from the analysis, the median score decreased from 4 to 3 (p=0.04). Changes in the functional well-being of the subjects was examined. […] However, when three subjects were excluded who reported excellent functional well-being even before the study (scores of 3 o 4 for all 7 questions) from the analysis, there was an improvement in the functional well-being of the 9 patients, with the median composite score increased from 14 to 16 (p=0.06).

Clostridium difficile = details: cited from earlier work

CO[C@H]1/C=C/O[C@@]2(C)Oc3c(C)c(O)c4c(O)c(c5c(nc6cc(C)ccn65)c4c3C2=O)NC(=O)/C(C)=C\C=C\[C@H](C)[C@H](O)[C@@H](C)[C@@H](O)[C@@H](C)[C@H](OC(C)=O)[C@@H]1C [rifaximin]
median CANs after rifaximin therapy ([1]; SCD patients, 550 mg twice a day, after 2-4 weeks, range 2.63-20.25, pre-treatment median 12.65% [range 6.07-40.05], two-tailed p=0.0036): 4.55%
change in CANs after being started on rifaximin ([1]; all twelve patients, after 2-4 weeks of rifaximin): marked reduction; also recorded: dramatic reduction
CANs at the three-month time-point ([1]; two patients whose CANs were analyzed): continued to decrease
change in serum CD62L (serum CD62L): drop and significant drop
change in serum iFABP (serum iFABP): dropped significantly
change in serum LPS levels (serum LPS): dropped significantly
change in urinary 3-IS (urinary 3-IS): drops and drop
abundance of Akkermansia in stool (intestinal microbiome): trend towards increased abundance
abundance of Bacteroides in stool (intestinal microbiome): increase in the abundance
abundance of Escherichia-Shigella in stool (intestinal microbiome): trend towards increased abundance
median number of VOC during the study period (patients with SCD [2]; 12 patients, six months of rifaximin, range 0-4, expected 2.25 (range 1-6.5) per 6 months, p=0.003): 1 per 6 months
total number of days needing IOA during the study period (patients with SCD [2]; expected 254 in six months): 98 days
response of the one patient whose VOC was predominantly priapism (patients with SCD [2]; self-reported medication compliance 100%): did not respond
median decrease in days needing IOA (patients with SCD [2]; six-month study period vs expected, range 1-55): 9 days
median % reduction in days needing IOA (patients with SCD [2]; six-month study period vs expected, range 20-100, p=0.008): 82%
adverse event: increased thirst (patients with SCD [3]; both, human, in vivo, 6 months): 2 cases
adverse event: self-limiting probable viral gastroenteritis (patients with SCD [3]; culture negative, C. diff negative by PCR, 12 patients): 1 case
adverse event: slight nausea (patients with SCD [3]; human, in vivo): common
change in bilirubin (patients with SCD [3]; human, in vivo): did not show any significant change
change in haptoglobin (patients with SCD [3]; human, in vivo): did not show any significant change
change in hemoglobin (patients with SCD [3]; human, in vivo): did not show any significant change
change in serum lactate dehydrogenase (patients with SCD [3]; human, in vivo): did not show any significant change
change in white cell counts (patients with SCD [3]; human, in vivo): did not show any significant change
median composite score of functional well-being (patients with SCD [4]; 9 patients, three with excellent baseline excluded, before 14, p=0.06): 16
median score to the question "I am enjoying the things I usually do for fun" (patients with SCD [4]; after three months of rifaximin, before 1, p=0.048): 2.5
median score to the question "I am able to enjoy life" (patients with SCD [4]; after three months of rifaximin, before 2, p=0.026): 2.5
functional well-being, as a group (patients with SCD [4]; following rifaximin): not any significant difference
emotional and social well-being (patients with SCD [4]; following rifaximin therapy): No significant change
median score for response to the question "I have pain" (patients with SCD [4]; scale 0-4, as a group, before rifaximin 3.5, p=0.08): 2
median score "I have pain", two patients with only slight pain excluded (patients with SCD [4]; scale 0-4, before rifaximin 4, p=0.04): 3
activity against Clostridium difficile (Clostridium difficile): has activities against Clostridium difficile
